The target in assay [1] is T1, human HSD17B13 (Homo sapiens, UniProt Q7Z5P4).
T1 sequence (Q7Z5P4 20-300): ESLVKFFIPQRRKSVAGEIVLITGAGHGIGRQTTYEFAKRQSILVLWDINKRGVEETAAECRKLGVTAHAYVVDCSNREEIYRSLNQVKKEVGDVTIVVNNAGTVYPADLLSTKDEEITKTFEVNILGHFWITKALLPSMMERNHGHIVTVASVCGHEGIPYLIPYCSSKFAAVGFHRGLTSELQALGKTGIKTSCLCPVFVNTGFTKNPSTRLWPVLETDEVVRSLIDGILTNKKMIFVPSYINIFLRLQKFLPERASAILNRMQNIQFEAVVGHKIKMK
The experiment in a line: Substrate screening of steroid and bioactive lipid libraries against purified recombinant HSD17B13 (NADH-linked luciferase assay). Type of assay: biochemical. To be noted: for HSD17B13 Enzymatic Activity Relative Light Units: 500 μM NAD+, 100 ng enzyme, 3 hours at 23° C.; for HSD17B13 Enzymatic Activity Percent Estradiol Control: normalized to 50 μM estradiol after subtraction of 5% DMSO. In outline:
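Recombinant human HSD17B13 (100 ng) incubated 3 h at 23° C in 0.2 M Tris-HCl pH 7.5 with 500 μM NAD+ and 5 μM bioactive lipid or 50 μM steroid (5% DMSO). NADH measured by luciferase luminescence after 1 h; values as percent of 50 μM estradiol control after 5% DMSO subtraction.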

Assay [2] has as its target T2, HSD17B1 (Homo sapiens, UniProt P14061).
T2 construct: made in house
T2 sequence (P14061 1-328): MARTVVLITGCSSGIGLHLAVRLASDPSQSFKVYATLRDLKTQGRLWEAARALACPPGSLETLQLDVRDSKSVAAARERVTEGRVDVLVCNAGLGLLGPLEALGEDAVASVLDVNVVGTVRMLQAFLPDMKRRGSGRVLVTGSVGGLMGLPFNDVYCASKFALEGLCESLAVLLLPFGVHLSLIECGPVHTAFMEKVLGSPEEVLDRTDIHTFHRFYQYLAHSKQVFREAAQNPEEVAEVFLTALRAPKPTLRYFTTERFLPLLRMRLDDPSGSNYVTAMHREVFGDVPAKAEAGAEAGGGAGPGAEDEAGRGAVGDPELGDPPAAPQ
The experiment in a line: Steroid substrate panel against HSD17B family member B1. Type of assay: biochemical. To be noted: substrate at 50 μM; estradiol set as 100%.

The target in a further assay is T3, HSD17B2 (Homo sapiens, UniProt P37059).
T3 construct: made in house
T3 sequence (P37059 1-387): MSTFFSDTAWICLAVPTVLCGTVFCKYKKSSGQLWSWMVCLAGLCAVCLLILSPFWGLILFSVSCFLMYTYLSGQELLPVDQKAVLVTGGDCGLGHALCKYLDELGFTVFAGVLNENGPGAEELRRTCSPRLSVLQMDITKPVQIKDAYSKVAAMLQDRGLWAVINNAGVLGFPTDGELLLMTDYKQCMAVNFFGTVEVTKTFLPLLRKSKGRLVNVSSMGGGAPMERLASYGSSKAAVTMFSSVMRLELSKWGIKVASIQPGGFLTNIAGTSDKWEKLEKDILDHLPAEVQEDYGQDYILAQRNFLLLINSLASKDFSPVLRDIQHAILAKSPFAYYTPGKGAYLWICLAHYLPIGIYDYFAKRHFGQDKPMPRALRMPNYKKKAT
The experiment in a line: Steroid substrate panel against HSD17B family member B2. The assay is classed as biochemical. To be noted: substrate at 50 μM; estradiol set as 100%.

A further assay deals with T4, HSD17B4 (Homo sapiens, UniProt P51659).
T4 construct: made in house
T4 sequence (P51659 1-736): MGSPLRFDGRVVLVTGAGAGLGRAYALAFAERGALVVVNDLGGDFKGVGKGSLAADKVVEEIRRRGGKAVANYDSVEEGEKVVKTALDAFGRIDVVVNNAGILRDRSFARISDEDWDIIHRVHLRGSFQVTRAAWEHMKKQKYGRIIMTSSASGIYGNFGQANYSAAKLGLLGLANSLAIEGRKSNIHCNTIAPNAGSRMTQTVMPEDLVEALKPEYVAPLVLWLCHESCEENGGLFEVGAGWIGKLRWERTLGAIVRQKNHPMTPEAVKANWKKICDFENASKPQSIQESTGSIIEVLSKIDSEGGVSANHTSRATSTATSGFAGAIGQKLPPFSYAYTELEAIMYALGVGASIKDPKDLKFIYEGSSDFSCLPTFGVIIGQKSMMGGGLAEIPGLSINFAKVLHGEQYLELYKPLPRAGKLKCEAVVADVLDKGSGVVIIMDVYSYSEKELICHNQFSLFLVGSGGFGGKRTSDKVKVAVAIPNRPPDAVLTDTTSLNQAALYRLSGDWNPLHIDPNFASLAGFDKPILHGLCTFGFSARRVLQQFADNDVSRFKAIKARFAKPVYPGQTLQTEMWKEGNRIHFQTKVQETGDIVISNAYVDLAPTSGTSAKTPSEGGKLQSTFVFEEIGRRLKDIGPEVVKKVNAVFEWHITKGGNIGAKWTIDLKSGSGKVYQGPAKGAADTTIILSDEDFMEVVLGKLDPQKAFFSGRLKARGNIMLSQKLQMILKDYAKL
The experiment in a line: Steroid substrate panel against HSD17B family member B4. The assay is classed as biochemical. The settings on record: substrate at 50 μM; estradiol set as 100%.

A further assay has as its target T5, HSD17B5 (Homo sapiens, UniProt P42330).
T5 construct: made in house
T5 sequence (P42330 1-323): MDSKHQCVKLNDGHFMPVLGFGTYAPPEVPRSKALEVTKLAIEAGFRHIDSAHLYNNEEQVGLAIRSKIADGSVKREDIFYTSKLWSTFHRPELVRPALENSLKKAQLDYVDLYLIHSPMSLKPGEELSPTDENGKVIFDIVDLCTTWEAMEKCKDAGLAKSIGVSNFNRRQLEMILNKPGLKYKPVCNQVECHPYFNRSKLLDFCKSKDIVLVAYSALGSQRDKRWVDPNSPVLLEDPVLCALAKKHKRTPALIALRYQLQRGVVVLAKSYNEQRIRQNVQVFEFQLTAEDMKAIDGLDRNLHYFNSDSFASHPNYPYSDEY
The experiment in a line: Steroid substrate panel against HSD17B family member B5. The settings on record: substrate at 50 μM; estradiol set as 100%. The assay is classed as biochemical.

Another assay has as its target T6, HSD17B10 (Homo sapiens, UniProt Q99714).
T6 construct: made in house
T6 sequence (Q99714 1-261): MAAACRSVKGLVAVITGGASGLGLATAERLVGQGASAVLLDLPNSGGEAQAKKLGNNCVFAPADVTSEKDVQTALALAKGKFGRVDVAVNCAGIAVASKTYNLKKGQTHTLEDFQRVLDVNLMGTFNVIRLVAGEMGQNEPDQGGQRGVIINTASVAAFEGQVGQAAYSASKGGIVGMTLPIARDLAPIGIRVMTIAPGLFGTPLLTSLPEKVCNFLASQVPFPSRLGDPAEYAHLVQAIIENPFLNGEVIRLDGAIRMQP
The experiment in a line: Steroid substrate panel against HSD17B family member B10. Type of assay: biochemical. The settings on record: substrate at 50 μM; estradiol set as 100%.

A further assay deals with T7, HSD17B11 (Homo sapiens, UniProt Q8NBQ5).
T7 construct: made in house
T7 sequence (Q8NBQ5 20-300): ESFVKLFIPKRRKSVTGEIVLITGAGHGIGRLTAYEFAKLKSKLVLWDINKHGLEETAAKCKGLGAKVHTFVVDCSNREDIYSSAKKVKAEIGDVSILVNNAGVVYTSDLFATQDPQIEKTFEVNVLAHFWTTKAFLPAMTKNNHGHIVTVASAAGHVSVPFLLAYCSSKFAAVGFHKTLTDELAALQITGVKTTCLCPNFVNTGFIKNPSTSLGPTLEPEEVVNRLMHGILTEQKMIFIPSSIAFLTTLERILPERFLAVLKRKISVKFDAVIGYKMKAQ
The experiment in a line: Steroid substrate panel against HSD17B family member B11. Type of assay: biochemical. To be noted: substrate at 50 μM; estradiol set as 100%.

Assay [3] has as its target T8, HEK293 cells overexpressing HSD17B13 isoform A (Homo sapiens, UniProt Q7Z5P4).
T8 construct: expressed in transfected cells; host or cells: HEK293
T8 sequence (Q7Z5P4 20-300): T1 sequence (Q7Z5P4 20-300)
The experiment in a line: HEK293 cell-based substrate consumption assay (LC-MS). The settings on record: 1 μM substrate, 2 hours or 48 hours.

In assay [4] the target is T2, HSD17B1. The experiment in a line: Cell-based assay of estrone to estradiol conversion by HSD17B1 (LC-MS). To be noted: over 48 hour period. From the text: The capacity of HSD17B1 to convert estrone to estradiol, and the capacity of equilin to inhibit HSD17B1 was confirmed in a cell-based assay. Liquid chromatography and mass spectrometry (LC-MS) was used to measure estrone and estradiol concentration over time.

Assay [5] addresses T9, recombinant HSD17B13 (E20-K300) (Homo sapiens, UniProt Q7Z5P4).
T9 construct: recombinant HSD17B13 (E20-K300)
T9 sequence (Q7Z5P4 20-300): T1 sequence (Q7Z5P4 20-300)
The experiment in a line: Biochemical NADH-linked screen of bioactive lipids as substrates (Example 2). To be noted: 5 μM substrate, 100 μM NAD+, four hours at room temperature. How it is done: The biochemical assay described in Example 1 was repeated using bioactive lipids as substrates. In brief, 5 μM of each substrate was incubated in 40 μL reactions containing 1 μg of recombinant HSD17B13 (E20-K300) or beta-2 microglobulin (as a negative control) and 100 μM NAD^+ in 0.2M Tris-HCl, pH 7.5. After four hours of incubation at room temperature, 10 μL of each reaction was mixed with 10 μL luciferase and read, after 40 minutes, on an Envision Plate Reader (Perkin Elmer).

The target in assay [6] is T1, human HSD17B13. The experiment in a line: Biochemical NADH-linked screen of compound libraries as substrates for HSD17B13 (Example 1). To be noted: 50 μM substrate, 0.5 mM NAD+, 24 hr at 25 degrees C. As to the method: A biochemical assay was employed to screen the compounds from the library. The assay employed the following reaction conditions: 0.1 M Potassium phosphate buffer pH 7.5, 0.5 mM NAD^+, 50 μM substrate in DMSO 2% reaction volume or DMSO alone (no substrate) as a control, and 1 μl of purified enzyme or green fluorescent protein (GFP) as a control, with a final reaction volume of 100 microliters. Test samples were subject to a 24 hr incubation at 25 degrees C. After incubation, 20 μL reaction above+20 μL luciferase were incubated at room temperature for 1 h and read on an Envision Plate Reader (Perkin Elmer).

SMILES strings stand for the structures.

As to `C[C@]12CCC(O)C[C@@H]1CC[C@@H]1[C@@H]2CC[C@]2(C)[C@@H](O)CC[C@@H]12` (stereo partly shown) [Androstanediol], on human HSD17B13 [1] (Steroid Library, 50 μM steroid), the “HSD17B13 Enzymatic Activity Relative Light Units” value is listed as 488440 RLU and the “HSD17B13 Enzymatic Activity Percent Estradiol Control” value turned out to be 5.73%. For the same compound, the “Percent of Control (POC), B1” value on HSD17B1 [2] was 0.3%. The “Percent of Control (POC), B2” value at HSD17B2 is 46.9%. In addition, the “Percent of Control (POC), B4” value on HSD17B4 came to 63.0%. In addition, the “Percent of Control (POC), B5” value on HSD17B5 is 216%. Further, on HSD17B10, the “Percent of Control (POC), B10” value is listed as 1.9%. Moreover, at HSD17B11, the “Percent of Control (POC), B11” value was determined as 0.0%. For the same compound, in [3], the “conversion of substrate catalyzed by HSD17B13 in cells” value was “did not substantially catalyze the conversion”.
With `C[C@]12CC[C@H]3C(=CCc4cc(O)ccc43)[C@@H]1CCC2=O` [Equilin], on human HSD17B13 [1] (Steroid Library, 50 μM steroid), the “HSD17B13 Enzymatic Activity Relative Light Units” value turned out to be 186840 RLU and the “HSD17B13 Enzymatic Activity Percent Estradiol Control” value came out at 0.46%. In addition, at HSD17B1 [4], the “inhibition of conversion of estrone to estradiol by HSD17B1” value is listed as “can be inhibited by equilin”.
Regarding `CCCCC/C=C\C[C@@H](O)/C=C/C=C/C=C\[C@@H](O)CCCC(=O)O` [Leukotriene B4], the “identified as enzymatic substrate of HSD17B13” value on human HSD17B13 [1] (265 unique putative substrates tested) is recorded as “enzymatic substrates”. Besides, the “HSD17B13 Enzymatic Activity Relative Light Units” value at human HSD17B13 [1] (Bioactive Lipid Library, 5 μM bioactive lipid (Estradiol Control 50 μM)) was 1743000 RLU. The “HSD17B13 Enzymatic Activity Percent Estradiol Control” value at human HSD17B13 [1] (Bioactive Lipid Library, 5 μM bioactive lipid) came out at 115.40%. Moreover, the “substrate for HSD17B13” value in assay [5] is “is a substrate”.
As to `C[C@]12CC[C@H]3[C@@H](CC[C@@]45O[C@@H]4C(O)=C(C#N)C[C@]35C)[C@@H]1CC[C@@H]2O` [Trilostane], at human HSD17B13 [1] (Steroid Library, 50 μM steroid), the “HSD17B13 Enzymatic Activity Relative Light Units” value turned out to be 1896560 RLU and the “HSD17B13 Enzymatic Activity Percent Estradiol Control” value amounted to 30.32%. For the same compound, the “suitability as substrate for HSD17B13” value at human HSD17B13 [6] is reported as “suitable substrates”.

The values above are taken from patent US11479802B2, “Assays for screening activity of modulators of members of the hydroxy steroid (17-beta) dehydrogenase (HSD17B) family” (Regeneron Pharmaceuticals, Inc., priority 2017, dated 2022).
